From ChEMBL document CHEMBL2074529, “Increased sensitivity to gemcitabine of P-glycoprotein and multidrug resistance-associated protein-overexpressing human cancer cell lines” (Br J Cancer, 2003)

Assays:
Type in all cases: functional, cell-based
[1] = target: T1, ATP-dependent translocase ABCB1 (Homo sapiens, UniProt P08183); assay: TP_TRANSPORTER: drug resistance in 2780AD cells
[2] = target: T1, ATP-dependent translocase ABCB1; assay: TP_TRANSPORTER: drug resistance in […]-expressing SWI573/SI(I.I) cells
[3] = target: T1, ATP-dependent translocase ABCB1; assay: TP_TRANSPORTER: drug resistance in MDR1-expressing BROmdr cells
[4] = target: T1, ATP-dependent translocase ABCB1; assay: TP_TRANSPORTER: drug resistance in 2RI60 cells

Measured: Activity

T1 sequence (P08183 whole entry): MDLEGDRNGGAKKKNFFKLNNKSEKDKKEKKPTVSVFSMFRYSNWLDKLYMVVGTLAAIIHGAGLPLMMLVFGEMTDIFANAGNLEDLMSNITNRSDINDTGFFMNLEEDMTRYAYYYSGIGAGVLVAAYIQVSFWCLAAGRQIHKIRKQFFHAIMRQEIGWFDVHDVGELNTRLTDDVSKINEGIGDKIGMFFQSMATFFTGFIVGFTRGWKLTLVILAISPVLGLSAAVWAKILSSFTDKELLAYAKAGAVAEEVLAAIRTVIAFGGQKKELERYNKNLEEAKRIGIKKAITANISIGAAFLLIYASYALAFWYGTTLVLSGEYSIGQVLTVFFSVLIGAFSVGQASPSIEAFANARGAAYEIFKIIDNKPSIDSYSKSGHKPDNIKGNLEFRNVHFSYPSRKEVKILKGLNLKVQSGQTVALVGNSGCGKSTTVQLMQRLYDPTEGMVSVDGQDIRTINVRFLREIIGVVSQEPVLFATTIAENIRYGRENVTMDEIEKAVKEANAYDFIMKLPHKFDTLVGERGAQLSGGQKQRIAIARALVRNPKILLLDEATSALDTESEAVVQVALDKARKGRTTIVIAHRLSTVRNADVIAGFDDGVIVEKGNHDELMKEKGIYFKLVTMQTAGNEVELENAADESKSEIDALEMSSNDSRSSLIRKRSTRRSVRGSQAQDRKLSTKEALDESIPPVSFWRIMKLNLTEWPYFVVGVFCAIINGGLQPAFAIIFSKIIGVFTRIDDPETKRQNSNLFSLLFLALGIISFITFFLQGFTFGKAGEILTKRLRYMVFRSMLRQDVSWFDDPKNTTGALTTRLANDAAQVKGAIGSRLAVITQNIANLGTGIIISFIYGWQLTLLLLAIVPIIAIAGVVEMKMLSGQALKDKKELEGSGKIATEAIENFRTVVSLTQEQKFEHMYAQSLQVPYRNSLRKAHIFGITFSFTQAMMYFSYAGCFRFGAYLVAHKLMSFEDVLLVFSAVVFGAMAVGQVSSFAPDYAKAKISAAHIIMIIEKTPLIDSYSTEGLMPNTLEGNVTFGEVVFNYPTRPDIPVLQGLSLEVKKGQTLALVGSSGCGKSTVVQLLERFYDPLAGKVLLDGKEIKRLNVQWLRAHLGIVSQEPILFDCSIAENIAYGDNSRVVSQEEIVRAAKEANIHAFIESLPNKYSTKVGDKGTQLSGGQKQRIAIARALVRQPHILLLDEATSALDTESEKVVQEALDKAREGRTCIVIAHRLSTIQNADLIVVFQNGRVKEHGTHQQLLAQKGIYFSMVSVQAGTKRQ

Nc1ccn([C@@H]2O[C@H](CO)[C@@H](O)C2(F)F)c(=O)n1 [GEMCITABINE]
substrate [+]: all assays above
